# Assay results reported in US8034574B2, “Screening method for prokinetic agent” (Astellas Pharma Inc., priority 2006, dated 2011).
# Entries after “also recorded” stand apart in the source; their conditions may differ.
# Tested on: rat EC cells
# Experiment: Serotonin secretion from rat small intestine EC cells
# Format: cell-based
# Conditions: 45 minutes culture
# Method: A Wistar rat (male, 8-week-old) was decapitated and exsanguinated, after which it was dissected and laparotomized with scissors, and the small intestine was extirpated. The inside of the lumen of the extirpated small intestine was washed with physiological saline, and about 20 mL of Buffer A (70 mM NaCl, 5 mM KCl, 20 mM NaHCO3, 0.5 mM NaH2PO4, 50 mM HEPES (pH 7.2), 11 mM glucose, 3 mM EDTA, 0.5% BSA, 0.05 mM dithiothreitol, 1 mg/mL N-acetyl-L-cysteine) was injected, after which both ends were closed, and the small intestine was allowed to stand in 37° C. incubated HBSS for 10 minutes. Thereafter, the Buffer A in the lumen of the small intestine was discarded, about 20 mL of Buffer A was injected again, and the small intestine was allowed to stand in 37° C. incubated HBSS for 10 minutes. Again, the Buffer A in the lumen of the small intestine was discarded, fresh Buffer A was injected, and the small intestine was allowed to stand in 37° C. incubated HBSS for 20 minutes, after which the lumen content was recovered. […]
# Serotonin secretion activity in EC cells prepared by the method described in Example 9-(3) was measured by a method modified from the method of Example 14 above. […]
# The serotonin content in the supernatant was measured using a commercially available serotonin immunoassay kit (Beckman). […]
smiles,measurement,value
C=CCN=C=S [allyl isothiocyanate],serotonin secretion from rat EC cells,significant serotonin secretion promoting activity was observed; also recorded: promoted the release of serotonin from the EC cells
